The source of these data is US5208223A, “Phosphocholine derivative inhibitors of phospholipase A2” (American Cyanamid Company, priority 1992, dated 1993).

What all share (assay type): biochemical
In experiment [1] the target is T1, porcine pancreatic PLA2 (Sus scrofa, UniProt P00592).
T1 construct: purchased Sigma
Kind of experiment: MHPLA2 assay: in vitro porcine pancreatic phospholipase A2, mixed micelle design, [s]=10 μm. The note with it: for inhibition at 50 µg/mL: dose 50 μ/ml. In a few lines:
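Compounds dried with 10 μM 1-stearyl-2-[3H]-arachidonyl-PC substrate in mixed micelles (0.1M tris-HCl pH 9.0, 10 mM CaCl2, 10 mM Na taurocholate). Reaction started by adding enzyme and run 15 min at 37°C, then stopped with TCA. Released [3H]-arachidonate separated by TLC or column and counted by scintillation.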

Experiment [2] has as its target T1, porcine pancreatic PLA2. Kind of experiment: SMPLA2 assay: in vitro porcine pancreatic phospholipase A2, mixed micelle design, substrate 100 to 1000 μm. The procedure: (§1) Phospholipase A2 activity was measured by a radiochemical assay in which labeled synthetic phosphatidylcholine substrate is converted by porcine pancreatic PLA2 to free radiolabeled arachidonate and lyso PC. Radiolabeled arachidonate is extracted from the reaction mixture and separated from unreacted substrate by column chromatography or TLC. Radioactivity (cpm) in samples is quantitated by liquid scintillation counting. Specific details are as follows:
(§2) Labeled substrate(1-stearyl-2-^3 H-arachidonylphosphatidylcholine; Amersham, sp. act. 84 (uCi/mmole, 0.025 to 0.2 uCi/assay tube and unlabeled substrates (Avanti), in sufficient quantity to give 20,000 cpm to 50,000 cpm and 10 μM to 1,000 μM final concentration/assay tube are dried under a stream of nitrogen. The PLA2 and mPLA2 assays utilized a […] substrate concentration. The mHPLA2 and HPLA2 assays (vida infra) utilized a 10 μM substrate concentration and the SmPLA2 assay utilized a substrate concentration ranging from 100 to 1000 μm. The substrate is then redissolved in 0.1M tris-HCl buffer, pH 9.0 containing 10 mM CaCl2 and 10 mM Na taurocholate detergent. The mixture is sonicated in a Kontes Sonifier to yield a homogeneous dispersion. The "mixed" micellar substrate is clear. An aliquot is reserved for a cpm count (total substrate). The total reaction volume is 500 μL; siliconized glassware or plasticware is used throughout. Enzyme (Sigma, sp. act.>690 U/mg protein and preferably 900 U/mg protein) is diluted 1:750 or 1:1000 in 0.1M tris-HCl buffer, pH 9.0 (without Ca^++ and detergent). Enzyme dilution depends on substrate concentration and required enzyme concentration.
(§3) The substrate in buffer is kept on ice until the reaction is started. The reaction is started by adding 10 μL of diluted enzyme solution to 490 μL of micellar substrate solution. Samples are incubated in a 37° C. water bath for 15 minutes with gentle mixing. The reaction is terminated by the addition of 100 μL of 1M fresh trichloroacetic acid (TCA) solution and chilling the tubes on ice for 30 minutes.
(§4) Samples (600 μL) are extracted with 3 ml CHCl3 /MeOH (2:1) for thin layer chromatography or in hexane/ether (9:1) for column chromatography. The phases are separated by gentle centrifugation at 700 rpm×5'. The organic phase is recovered.
(§5) Labeled arachidonate extracted with CHCl3 /MeOH is separated on silica gel G TLC plates (Analtech). Twenty μL of a 2 mg/ml internal standard solution of arachidonic acid (Sigma) is combined with 2-3 ml of the organic phase. The entire mixture is dried under nitrogen and redissolved in 50 μL of CHCl3 /MeOH (2:1). A 20 μL sample is counted in 10 ml of Beckman Redi-solv HP and spotted on silica gel G plates. The solvent system used to develop the plate is CHCl3 /MeOH/13.5N NH3 /H2 O (70:30:4:1). Plates are developed in a glass chamber for 1-11/2 hours, air dried, and the spots visualized in an iodine vapor chamber. Standards of phosphatidylcholine, lyso PC, and arachidonic acid (Sigma) are made as 2 mg/ml stocks in CHCl3 /MeOH (2:1) and spotted on plates. Spots corresponding to arachidonate and phospholipid are scraped and counted in 10 ml Beckman Redi-Solv HP scintillation fluid.
(§6) Samples are extracted with hexane/ether and the upper organic phase recovered. An aliquot is applied to a Silicar CC4 (Malincrodt) column. Columns are prepared using 1 ml of a 1:1 slurry of silicar CC4 in hexane/ether in a Pasteur pipet (approx. 2 cm height). Columns are rinsed with 500 μL of hexane/ether before adding the sample (300-600 μL) to the column. Columns are eluted with a total of 6 ml of hexane/ether. The 6 ml sample is counted in 10 ml of Beckman Redi-Solv HP scintillation fluid.
(§7) or the phospholipase A2 assay, compounds are prepared as 1 mg/ml stock solutions in MeOH and diluted appropriately in PBS. […]

Experiment [3] has as its target T1, porcine pancreatic PLA2. Nature of the experiment: MPLA2 assay: in vitro porcine pancreatic phospholipase A2, mixed micelle design, substrate 2 nM. To be noted: for inhibition at 10 µg/mL: dose 10 μ/ml; for inhibition at 20 µg/mL: dose 20 μ/ml. The procedure:
as §1, §2, §3, §4, §5, §6, §7

For experiment [4], the target named is T1, porcine pancreatic PLA2. Nature of the experiment: PLA2 assay: in vitro porcine pancreatic phospholipase A2, preincubation of drug+enzyme, substrate 2 nM. To be noted: subs. con. 2. In short, it runs like this:
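Porcine pancreatic PLA2 acting on 2 nM radiolabeled arachidonyl-phosphatidylcholine in mixed micelles (0.1 M Tris-HCl pH 9.0, 10 mM CaCl2, 10 mM Na taurocholate), 15 min at 37 °C with preincubation of drug and enzyme. Stopped with TCA; released 3H-arachidonate extracted, separated by TLC or column, counted by scintillation.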

Setting [5] is: dose 10 μ/ml, subs. con. 10, read-out: % Inh. Avg.
Where [6] appears, read: dose 25 μ/ml, subs. con. 10, read-out: % Inh. Avg.
[7] abbreviates: dose 10 μ/ml, preincubation, read-out: % Inh.
Where [8] appears, read: dose 20 μ/ml, preincubation, read-out: % Inh.
The mark [9] stands for this setting: dose 25 μ/ml, subs. con. 2, read-out: % Inh.
[10] abbreviates: dose 25 μ/ml, subs. con. 10, read-out: % Inh.
[11] abbreviates: preincubation, read-out: IC50 (converted).
Where [12] appears, read: subs. con. 2, read-out: % Inh. Avg.

“And” between values parts separate entries of the source, which are not always exact repeats. Identical values can stand only once. Counter-ions that a name gives are not always drawn.

The IC50 is the concentration that gives 50% inhibition.

T1 sequence (P00592 23-146): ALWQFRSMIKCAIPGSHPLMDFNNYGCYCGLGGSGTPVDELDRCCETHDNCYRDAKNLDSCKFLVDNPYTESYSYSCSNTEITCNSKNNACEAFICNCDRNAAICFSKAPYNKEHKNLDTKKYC

For the compound `CCCCCCCCCCCCCCCCOCC(COP(=O)([O-])OCC[N+](C)(C)C)OC(=O)C(Br)CCCCCCCCCCCCCCCC` (stereo not drawn) [10-Bromo-7-[(hexadecyloxy)methyl]-4-hydroxy-N,N,N-trimethyl-9-oxo-3,5,8-trioxa-4-phosphahexacosan-1-aminium, hydroxide, inner salt, 4-oxide], the inhibition at 10 µg/mL was found to be 8% at porcine pancreatic PLA2 [1] (setting [5]); 8% on porcine pancreatic PLA2 [2] (dose 10 μ/ml, subs. con. 100); 0% against porcine pancreatic PLA2 [2] (dose 10 μ/ml, subs. con. 500); 5% at porcine pancreatic PLA2 [2] (dose 10 μ/ml, subs. con. 1000); 82% at porcine pancreatic PLA2 [3] (subs. con. 2, read-out: % Inh.). Also, the inhibition at 25 µg/mL at porcine pancreatic PLA2 [1] (setting [6]) came to 10%; against porcine pancreatic PLA2 [2] (dose 25 μ/ml, subs. con. 100), 1%; at porcine pancreatic PLA2 [2] (dose 25 μ/ml, subs. con. 500) it was 0%; against porcine pancreatic PLA2 [2] (dose 25 μ/ml, subs. con. 1000), 10%. Moreover, the inhibition at 50 µg/mL at porcine pancreatic PLA2 [1] (subs. con. 10, read-out: % Inh.) came out at 37%; on porcine pancreatic PLA2 [1] (subs. con. 10, read-out: % Inh. Avg.), 137%; against porcine pancreatic PLA2 [2] (dose 50 μ/ml, subs. con. 100), 18%; against porcine pancreatic PLA2 [2] (dose 50 μ/ml, subs. con. 500) it was 8%; on porcine pancreatic PLA2 [2] (dose 50 μ/ml, subs. con. 1000) it was 6%. Moreover, the inhibition at 20 µg/mL on porcine pancreatic PLA2 [3] (subs. con. 2, read-out: % Inh.) was 82%. This compound had an IC50 against porcine pancreatic PLA2 [3] (subs. con. 2) of 1.81 µM.

For `CCCCCCCCCCCCCCCCOCC(COP(=O)([O-])OCC[N+](C)(C)C)OP(=O)(O)OCCCCC` (single isomer, unassigned; less polar) [3,5,8,10-Tetraoxa-4,9-diphosphapentadecan-1-aminium, 7-[(hexadecyloxy)methyl]-4,9-dihydroxy-N,N,N-trimethyl-, hydroxide, 4-(inner salt), 4,9-dioxide, less polar isomer], the “% Inh.” value is recorded as “STIM” at porcine pancreatic PLA2 [1] (dose 10 μ/ml, subs. con. 10); “STIM” at porcine pancreatic PLA2 [1] (dose 25 μ/ml, subs. con. 10); “STIM” on porcine pancreatic PLA2 [2] (dose 10 μ/ml, subs. con. 100); “STIM” on porcine pancreatic PLA2 [2] (dose 25 μ/ml, subs. con. 100); “STIM” at porcine pancreatic PLA2 [2] (dose 50 μ/ml, subs. con. 100); “STIM” at porcine pancreatic PLA2 [2] (dose 50 μ/ml, subs. con. 500). Besides, the “% Inh.” value on porcine pancreatic PLA2 [2] (dose 50 μ/ml, subs. con. 1000) is “STIM”. Besides, the inhibition at 10 µg/mL at porcine pancreatic PLA2 [2] (dose 10 μ/ml, subs. con. 500) amounted to 7%; at porcine pancreatic PLA2 [2] (dose 10 μ/ml, subs. con. 1000) it was 22%; on porcine pancreatic PLA2 [4] (setting [7]), 21%. Besides, the inhibition at 25 µg/mL at porcine pancreatic PLA2 [2] (dose 25 μ/ml, subs. con. 500) amounted to 29%; against porcine pancreatic PLA2 [2] (dose 25 μ/ml, subs. con. 1000) it was 3%; on porcine pancreatic PLA2 [3] (setting [9]), 100%. The inhibition at 20 µg/mL on porcine pancreatic PLA2 [4] (setting [8]) worked out at 41%.

For the compound `CCCCCCCCCCCCCCCCOCC(COP(=O)([O-])OCC[N+](C)(C)C)CC(N)CCCCCCCCCCCCCCCC` (stereo not drawn) [7-(2-Aminooctadecyl)-4-hydroxy-N,N,N-trimethyl-3,5,9-trioxa-4-phosphapentacosanaminium, hydroxide, inner salt, 4-oxide], the “% Inh.” value on porcine pancreatic PLA2 [1] (dose 10 μ/ml, subs. con. 10) is 59%; on porcine pancreatic PLA2 [3] (dose 25 μ/ml, subs. con. 2), “STIM”. For the same compound, the inhibition at 10 µg/mL at porcine pancreatic PLA2 [1] (setting [5]) came to 70%; at porcine pancreatic PLA2 [4] (setting [7]), 95%; at porcine pancreatic PLA2 [3] (subs. con. 2, read-out: % Inh.) it was 34%; at porcine pancreatic PLA2 [3] (setting [12]), 65%. The inhibition at 20 µg/mL against porcine pancreatic PLA2 [1] (dose 20 μ/ml, subs. con. 10) came to 97%; on porcine pancreatic PLA2 [4] (setting [8]) it was 95%; at porcine pancreatic PLA2 [3] (subs. con. 2, read-out: % Inh.), 72%; at porcine pancreatic PLA2 [3] (setting [12]), 85%. The inhibition at 25 µg/mL is 78% at porcine pancreatic PLA2 [1] (setting [10]); 77% on porcine pancreatic PLA2 [1] (setting [6]); 63% on porcine pancreatic PLA2 [2] (dose 25 μ/ml, subs. con. 100); 92% at porcine pancreatic PLA2 [3] (setting [9]). Further, the IC50 is 1.91 µM and 7.09 µM and 8.73 µM at porcine pancreatic PLA2 [1] (subs. con. 10, read-out: IC50 (converted)); 5.87 µM on porcine pancreatic PLA2 [1] (subs. con. 10, read-out: IC50 Avg. (converted)); 20.6 µM and 34.1 µM at porcine pancreatic PLA2 [2] (subs. con. 100, read-out: IC50 (converted)); 27.3 µM on porcine pancreatic PLA2 [2] (subs. con. 100, read-out: IC50 Avg. (converted)); 0.682 µM at porcine pancreatic PLA2 [4] (setting [11]). Besides, the “% Inh. Avg.” value at porcine pancreatic PLA2 [2] (dose 25 μ/ml, subs. con. 100) stood at 61%.

Turning to `CCCCCCCCCCCCCCCCOCC(COP(=O)([O-])OCC[N+](C)(C)C)COP(=O)(Oc1ccccc1)Oc1ccccc1` (stereo not drawn) [4-[(Hexadecyloxy)methyl]-7-hydroxy-N,N,N-trimethyl-1,1-diphenoxy-2.6.8 trioxa-1.7-diophosphadecan-10-aminium, hydroxide, inner salt, 1,7-dioxide], the “% Inh.” value is 33% at porcine pancreatic PLA2 [1] (dose 25 μ/ml, subs. con. 10); 75% on porcine pancreatic PLA2 [4] (dose 10 μ/ml, preincubation); 85% on porcine pancreatic PLA2 [4] (dose 20 μ/ml, preincubation); 62% and 97% on porcine pancreatic PLA2 [3] (dose 25 μ/ml, subs. con. 2). Also, at porcine pancreatic PLA2 [4] (IC50, preincubation), the IC50 is 6.59 µM. Also, at porcine pancreatic PLA2 [3] (dose 25 μ/ml, subs. con. 2), the “% Inh. Avg.” value amounted to 79%.

Regarding `CCCCCCCCCCCCCCCCOCC(COP(=O)([O-])OCC[N+](C)(C)C)CSCCCCCCCCCCCCCCCC` (stereo not drawn) [7-[(Hexadecylthio)methyl]-4-hydroxy-N,N,N-trimethyl-3,5,9-trioxa-4-phosphapentacosan-1-aminium, hydroxide, inner salt, 4-oxide], the “% Inh.” value on porcine pancreatic PLA2 [1] (dose 10 μ/ml, subs. con. 10) is recorded as “STIM”; at porcine pancreatic PLA2 [1] (dose 20 μ/ml, subs. con. 10), “STIM”. Further, the inhibition at 25 µg/mL at porcine pancreatic PLA2 [1] (setting [10]) came to 81%; on porcine pancreatic PLA2 [3] (setting [9]), 79%. For the same compound, the inhibition at 10 µg/mL on porcine pancreatic PLA2 [4] (dose 10 μ/ml, preincubation, read-out: % Inh. Avg.) worked out at 26%; on porcine pancreatic PLA2 [3] (subs. con. 2, read-out: % Inh.) it was 59%. In addition, the inhibition at 20 µg/mL at porcine pancreatic PLA2 [4] (setting [8]) stood at 61%; at porcine pancreatic PLA2 [3] (subs. con. 2, read-out: % Inh.), 69%. In addition, the IC50 on porcine pancreatic PLA2 [4] (setting [11]) is 4.75 µM; on porcine pancreatic PLA2 [3] (subs. con. 2), 7.61 µM.
